Laboratory results taken from patent US20160024083A1, “COMPOUNDS AND METHODS FOR TREATING CANCERS” (HEALTH RESEARCH, INC., priority 2013, published 2016).
Read-outs that look alike come from different tables or passages of the source.

What was measured:
Format in all cases: cell-based
Hela = assay: Inhibition of growth / toxicity in non-target Hela cells
Protocol: (§1) This example provides a table (below) of the compounds of the present disclosure and their activity towards four different cell lines (i.e., CWR22R, HeLa, PC3, and MDA-MB-231). The IC50 for inhibition of growth is divided into 4 categories: A<1 μM, B 1-5 μM, C 5-20 μM, D>20 μM.
(§2) All compounds were tested for toxicity using 4 cells lines, target cells—CWR22R and non-target cells, Hela, PC3 and MDA-MB-231 (FIGS. 1A-F).

CWR22R = assay: cells
Protocol: FIG. 21. Toxicity of PLA1055 to CWR22R cells in vitro depending on time of incubation. PLA1055 was added to CWR22R in full range of concentrations for the periods of time shown on the right. After that drug containing media were changed for drug free and survival of cells was detected at 72 hours after start of treatment using Alamar Blue assay (Promega).
as §1, §2
LC50 data of in vitro 72 hours cytotoxicity assay are included in this table for comparison.
An in vitro experiment was run to detect the concentration of PLA1055 needed to kill all tumor cells in vitro (LC90) during different periods of time (30 minutes-72 hours, FIG. 21)).

PC3 = assay: Inhibition of growth / toxicity in non-target PC3 cells; settings: Homo sapiens, PC-3
Protocol: as §1, §2

MDA-MB-231 = assay: Inhibition of growth / toxicity in non-target MDA-MB-231 cells
Protocol: as §1, §2

[1] = Homo sapiens, 22Rv1, CWR22R, read-out: IC50 for inhibition of growth
[2] = CWR22R, read-out: IC50 for inhibition of growth

Row | Structure (SMILES) | IC50 (Hela; Homo sapiens, HeLa) [µM] | IC50 (CWR22R; [1]) [µM] | IC50 (PC3) [µM] | IC50 (MDA-MB-231; Homo sapiens) [µM] | IC50 (CWR22R; [2]) [µM] | IC50 (CWR22R; Homo sapiens, 22Rv1, read-out: IC50 for inhibition of growth, CWR22R) [µM] | IC50 (Hela; Hela) [µM] | IC50 (MDA-MB-231) [µM]
1 | CC(=O)c1ccc2c(c1)c1ccccc1n2CCCF [Compound 1-2] | > 20 | < 1 | > 20 | > 20 | – | – | – | –
2 | CCCn1c2ccc(C(C)=O)cc2c2ncccc21 [Compound 5-13] | > 20 | 1 to 5 | > 20 | > 20 | – | – | – | –
3 | CCCn1c2ccc(C(C)=O)cc2c2ccc(F)cc21 [Compound 5-2] | > 20 | 5 to 20 | > 20 | > 20 | – | – | – | –
4 | CCCn1c2ccc(C(C)=O)cc2c2c(F)cccc21 [Compound 5-1, 1-(5-Fluoro-9-propyl-9H-carbazol-3-yl)-ethanone] | > 20 | < 1 | > 20 | > 20 | – | – | – | –
5 | FCCCn1c2ccccc2c2cc(-n3cncn3)ccc21 [Compound 14-1, 9-(3-Fluoropropyl)-3-[1,2,4]triazol-1-yl-9H-carbazole] | > 20 | < 1 | > 20 | > 20 | – | – | – | –
6 | CC(=O)c1cc2c3ccccc3n(CCCF)c2cn1 [Compound 17-1, 1-[9-(3-Fluoropropyl)-9H-beta-carbolin-3-yl]-ethanone] | > 20 | < 1 | > 20 | > 20 | – | – | – | –
7 | CCCn1c2ccccc2c2cc(-c3ccno3)ccc21 [Compound 13-1, 3-Isoxazol-5-yl-9-propyl-9H-carbazole] | > 20 | 1 to 5 | > 20 | > 20 | – | – | – | –
8 | CC(=O)c1ccc2c(c1)c1ccccc1n2CCC(F)F [Compound 18-2, 1-[9-(3,3-Difluoropropyl)-9H-carbazol-3-yl]-ethanone] | > 20 | < 1 | > 20 | > 20 | – | – | – | –
9 | CCCn1c2ccccc2c2cc(C#N)ccc21 [Compound 22-2] | > 20 | < 1 | > 20 | > 20 | – | – | – | –
10 | CCCn1c2ccccc2c2cc(-c3nnco3)ccc21 [Compound 8-1, 3-[1,3,4]Oxadiazol-2-yl-9-propyl-9H-carbazole] | > 20 | < 1 | > 20 | > 20 | – | – | – | –
11 | CCCn1c2ccc(Cl)cc2c2cc(C(C)=O)ccc21 [Compound 20-2] | > 20 | > 20 | > 20 | > 20 | – | – | – | –
12 | FCCCn1c2ccccc2c2cc(-c3ccno3)ccc21 [Compound 13-2] | > 20 | < 1 | > 20 | > 20 | – | – | – | –
13 | CCCn1c2ccccc2c2cc(C(C)=O)ncc21 [Compound 17-3] | > 20 | 5 to 20 | > 20 | > 20 | – | – | – | –
14 | CC(=O)c1ccc2c(c1)c1c(C(N)=O)cccc1n2CCCF [Compound 5-8] | > 20 | < 1 | > 20 | > 20 | – | – | – | –
15 | CCCn1c2ccc(C(C)=O)cc2c2cc(C(N)=O)ccc21 [Compound 23-1, 6-Acetyl-9-propyl-9H-carbazole-3-carboxylic acid amide] | > 20 | 5 to 20 | > 20 | 5 to 20 | – | – | – | –
16 | CCn1c2ccccc2c2cc(-c3cccs3)ccc21 [Compound 2-6] | > 20 | 1 to 5 | – | > 20 | – | – | – | –
17 | FCCCn1c2ccc(-c3nnco3)cc2c2ncccc21 [Compound 10-1, 5-(3-Fluoropropyl)-8-[1,3,4]oxadiazol-2-yl-5H-pyrido[3,2-b]indole] | > 20 | – | – | > 20 | > 20 | – | – | –
18 | CCCn1c2ccccc2c2cc(-c3cnoc3)ccc21 [Compound 2-5] | > 20 | < 1 | > 20 | > 20 | – | – | – | –
19 | CCCn1c2ccccc2c2cc(-c3nccs3)ccc21 [Compound 4-2] | > 20 | > 20 | > 20 | > 20 | – | – | – | –
20 | N#Cc1ccc2c(c1)c1c(C(N)=O)cccc1n2CCCF [Compound 19-2] | > 20 | < 1 | > 20 | > 20 | – | – | – | –
21 | CCCn1c2ccc(C(C)=O)cc2c2c(O)cccc21 [Compound 27-1, 1-(5-Hydroxy-9-propyl-9H-carbazol-3-yl)-ethanone] | > 20 | > 20 | > 20 | > 20 | – | – | – | –
22 | CCCn1c2ccc(OC)cc2c2cc(C(C)=O)ccc21 [Compound 21-1, 1-(6-Methoxy-9-propyl-9H-carbazol-3-yl)-ethanone] | > 20 | 5 to 20 | > 20 | > 20 | – | – | – | –

Row | Structure (SMILES) | IC50 (Hela; Homo sapiens, HeLa) [µM] | IC50 (CWR22R; [1]) [µM] | IC50 (PC3) [µM] | IC50 (MDA-MB-231; Homo sapiens) [µM] | IC50 (CWR22R; [2]) [µM] | IC50 (CWR22R; Homo sapiens, 22Rv1, read-out: IC50 for inhibition of growth, CWR22R) [µM] | IC50 (Hela; Hela) [µM] | IC50 (MDA-MB-231) [µM]
23 | N#Cc1ccc2c(c1)c1ccccc1n2CCCF [Compound 26-1, 9-(3-Fluoropropyl)-9H-carbazole-3-carbonitrile] | > 20 | < 1 | > 20 | > 20 | – | – | – | –
24 | CNC(=O)c1cccc2c1c1cc(C(C)=O)ccc1n2CCCF [Compound 6-4] | > 20 | 5 to 20 | > 20 | > 20 | – | – | – | –
25 | CCCn1c2ccccc2c2cc(-c3ccccn3)ccc21 [Compound 4-5] | > 20 | 1 to 5 | > 20 | > 20 | – | – | – | –
26 | CCOC(=O)c1cnc2c(c1)c1ccccc1n2CCCF [Compound 5-11, 9-(3-fluoropropyl)-9H-pyrido[2,3-b]indole-3-carboxylic acid ethyl ester] | > 20 | 1 to 5 | > 20 | > 20 | – | – | – | –
27 | CCCn1c2ccccc2c2cc(Br)ccc21 [Compound 1-1, 3-Bromo-9-propyl-9H-carbazole] | > 20 | – | > 20 | > 20 | – | 1 to 5 | – | –
28 | CCCn1c2ccc(C(C)=O)cc2c2c(C#N)cccc21 [Compound 25-1, 6-Acetyl-9-propyl-9H-carbazole-4-carbonitrile] | > 20 | 1 to 5 | > 20 | > 20 | – | – | – | –
29 | CCn1c2ccccc2c2cc(-c3ccccn3)ccc21 [Compound 4-4] | > 20 | 5 to 20 | > 20 | > 20 | – | – | – | –
30 | CCCn1c2ccc(C(C)=O)cc2c2c(C(N)=O)cccc21 [Compound 19-1, 6-Acetyl-9-propyl-9H-carbazole-4-carboxamide] | > 20 | 1 to 5 | > 20 | > 20 | – | – | – | –
31 | FCCCn1c2ccccc2c2cc(-c3nnco3)ccc21 [Compound 9-1, 9-(3-Fluoropropyl)-3-[1,3,4]oxadiazol-2-yl-carbazole] | > 20 | < 1 | > 20 | > 20 | – | – | – | –
32 | FCCCn1c2ccccc2c2cc(-c3nnco3)cnc21 [Compound 8-4] | > 20 | < 1 | > 20 | > 20 | – | – | – | –
33 | CCCn1c2ccc(Br)cc2c2cc(C(C)=O)ccc21 [Compound 20-1, 1-(6-Bromo-9-propyl-9H-carbazol-3-yl)-ethanone] | > 20 | 5 to 20 | > 20 | > 20 | – | – | – | –
34 | CCCn1c2ccc(C(C)=O)cc2c2c(OC)cccc21 [Compound 6-1, 1-(5-Methoxy-9-propyl-9H-carbazol-3-yl)-ethanone] | > 20 | < 1 | > 20 | > 20 | – | – | – | –
35 | CCCn1c2ccccc2c2cc(-c3cccs3)ccc21 [Compound 2-1, 9-Propyl-3-thiophen-2-yl-9H-carbazole] | > 20 | < 1 | > 20 | > 20 | – | – | – | –
36 | CCCn1c2ccccc2c2cc(-c3nncs3)ccc21 [Compound 8-3] | > 20 | > 20 | > 20 | > 20 | – | – | – | –
37 | CCCn1c2ccccc2c2cc(-c3ncco3)ccc21 [Compound 4-1, 3-Oxazol-2-yl-9-propyl-9H-carbazole] | > 20 | 1 to 5 | > 20 | > 20 | – | – | – | –
38 | FCCCn1c2ccccc2c2cc(-c3cnco3)ccc21 [Compound 11-1, 9-(3-Fluoropropyl)-3-oxazol-5-yl-9H-carbazole] | > 20 | < 1 | > 20 | > 20 | – | – | – | –
39 | CCCn1c2ccccc2c2cc(-c3cnco3)ccc21 [Compound 11-2] | > 20 | < 1 | > 20 | > 20 | – | – | – | –
40 | CCCn1c2ccccc2c2cc(C3=NCCO3)ccc21 [Compound 15-2] | > 20 | > 20 | > 20 | > 20 | – | – | – | –
41 | FCCCn1c2ccc(-c3nnco3)cc2c2ncccc21 [Compound 10-2] | – | – | – | – | 5 to 20 | – | > 20 | > 20
42 | NC(=O)c1cnc2c(c1)c1ccccc1n2CCCF [Compound 7-1, 9-(3-Fluoropropyl)-9H-pyrido[2,3-b]indole-3-carboxamide] | > 20 | 1 to 5 | > 20 | > 20 | – | – | – | –
43 | N#Cc1cnc2c(c1)c1ccccc1n2CCCF [Compound 25-3] | > 20 | 1 to 5 | > 20 | > 20 | – | – | – | –
44 | CCCn1c2ccccc2c2cc(-c3ccc(C)s3)ccc21 [Compound 2-2] | > 20 | > 20 | > 20 | > 20 | – | – | – | –
